Reference: patent US20050245399A1, “Pyrazole derivatives as herbicidal compositions containing them” (ISHIHARA SANGYO KAISHA, LTD., priority 2004, published 2005)

tested on: soybean (Glycine max Merr.), GLXMA; assay: Test Example 2 post-emergence (foliage treatment) herbicidal activity, GLXMA; type: in vivo; conditions: 63 g a.i./ha
Outline: (§1)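 A small sprayer delivered the diluted WP or EC formulation (500 L/ha water, 0.1% v/v spreader) over emerged seedlings in upland soil pots. Damage relative to untreated plants was graded visually from 0 to 100% three weeks or so later (days 20-23).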

Compound | growth controlling degree, GLXMA
COc1c(Cl)cc(F)c(-c2nn(C)c(OC(F)F)c2Cl)c1NC(=O)OCc1cccnc1 [Compound 1-70] | 80%
CCCOC(=O)Nc1c(OC)c(Cl)cc(F)c1-c1nn(C)c(OC(F)F)c1Cl [Compound 1-72] | 70%

tested on: barnyardgrass (Echinochiloa oryzicola: ECHOR); assay: Test Example 3 water application herbicidal activity (paddy), ECHOR; type: in vivo; conditions: 63 g a.i./ha, water application under submerged condition at 0.5 leaf stage, visually observed 14th day after application; 0 = untreated control, 100 = complete kill
Source text: (§2) Paddy field soil was put into a 1/1,000,000 ha pot and seeds of barnyardgrass (Echinochiloa oryzicola: ECHOR) and japanese bulrush (Scirpus juncoides: SCPJO) were sown and slightly covered with soil. Then the pot was left to stand still in a greenhouse in a state where the depth of flooding water was from 0.5 to 1 cm, and one day later, tubers of japanese ribbon wapato (Sagittaria pygmaea: SA GPY) were planted. Thereafter, the depth of flooding water was maintained at a level of from 3 to 4 cm, and when barnyardgrass and japanese bulrush reached a 0.5 leaf stage, an aqueous diluted solution of a wettable powder or emulsifiable concentrate having the compound of the present invention formulated in accordance with a usual formulation method, was uniformly applied under submerged condition by a pipette so that the dose of the active ingredient would be at a predetermined level. On the other hand, paddy filed soil was put into a 1/1,000,000 ha pot and puddled and leveled, and the depth of flooding water was from 3 to 4 cm. One day later, rice (Oryza sativa L.: ORYSA) of 2 leaf stage was transplanted in a depth of 3 cm. On the 4th day after the transplantation, the compound of the present invention was applied in the same manner as described above. On the 14th day after the application of the herbicide, the growth of barnyardgrass, japanese burlush and japanese ribbon wapato was visually observed and on the 21st day after the application of the herbicide, the growth of rice was visually observed, and the herbicidal effects were evaluated by growth controlling degrees (%) ranging from 0 (equivalent to the untreated control) to 100 (complete kill), whereby the results shown in Table 6, were obtained. Compound Nos. in Table 6 correspond to Compound Nos. in Table 1 and 2 given hereinbefore.

Compound | growth controlling degrees (%) ECHOR
COc1c(Cl)cc(F)c(-c2nn(C)c(OC(F)F)c2Cl)c1NC(=O)OCc1cccnc1 [Compound 1-70] | 100%
CCCOC(=O)Nc1c(OC)c(Cl)cc(F)c1-c1nn(C)c(OC(F)F)c1Cl [Compound 1-72] | 100%

tested on: barnyardgrass (Echinochloa crus-galli L.): ECHCG; assay: Test Example 1 pre-emergence herbicidal activity, ECHCG; type: in vivo; conditions: Rate 63 g a.i./ha, visually observed 20th to 23rd day after application
Outline: (§3)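 pots, upland field soil; sow; +1 d spray compound (WP or EC, a.i. at set dose, 500 L/ha water), pre-emergence; visual % growth control d20–23 (0 untreated, 100 complete kill).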

Compound | Pre-emergence Herbicidal Activity ECHCG (growth controlling degree)
COc1c(Cl)cc(F)c(-c2nn(C)c(OC(F)F)c2Cl)c1NC(=O)OCc1cccnc1 [Compound 1-70] | 90%
CCCOC(=O)Nc1c(OC)c(Cl)cc(F)c1-c1nn(C)c(OC(F)F)c1Cl [Compound 1-72] | 98%

tested on: soybean (Glycine max Merr.): GLXMA; assay: Test Example 1 pre-emergence herbicidal activity, GLXMA; type: in vivo; conditions: Rate 63 g a.i./ha, visually observed 20th to 23rd day after application
Outline: as §3

Compound | Pre-emergence Herbicidal Activity GLXMA (growth controlling degree)
COc1c(Cl)cc(F)c(-c2nn(C)c(OC(F)F)c2Cl)c1NC(=O)OCc1cccnc1 [Compound 1-70] | 0%
CCCOC(=O)Nc1c(OC)c(Cl)cc(F)c1-c1nn(C)c(OC(F)F)c1Cl [Compound 1-72] | 0%

tested on: corn (Zea mays L.), ZEAMX; assay: Test Example 2 post-emergence (foliage treatment) herbicidal activity, ZEAMX; type: in vivo; conditions: 63 g a.i./ha
Outline: as §1

Compound | growth controlling degree, ZEAMX
COc1c(Cl)cc(F)c(-c2nn(C)c(OC(F)F)c2Cl)c1NC(=O)OCc1cccnc1 [Compound 1-70] | 80%
CCCOC(=O)Nc1c(OC)c(Cl)cc(F)c1-c1nn(C)c(OC(F)F)c1Cl [Compound 1-72] | 40%

tested on: crabgrass (Digitaria sanguinalis L.), DIGSA; assay: Test Example 2 post-emergence (foliage treatment) herbicidal activity, DIGSA; type: in vivo; conditions: 63 g a.i./ha
Outline: (§4)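 Herbicide was applied to foliage of seedlings raised in upland field soil: redroot pigweed at 0.1-1.5 leaves, barnyardgrass at 1.1-2.1, crabgrass at 1.0-2.0, rice at 1.0-2. A predetermined active ingredient amount was carried in 500 L/ha water with 0.1% (v/v) spreader; control (%) was assessed by eye after 20-23 days.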

Compound | growth controlling degree, DIGSP
COc1c(Cl)cc(F)c(-c2nn(C)c(OC(F)F)c2Cl)c1NC(=O)OCc1cccnc1 [Compound 1-70] | 60%
CCCOC(=O)Nc1c(OC)c(Cl)cc(F)c1-c1nn(C)c(OC(F)F)c1Cl [Compound 1-72] | 80%

tested on: wheat (Triticum aestivum L.), TRZAX; assay: Test Example 2 post-emergence (foliage treatment) herbicidal activity, TRZAX; type: in vivo; conditions: 63 g a.i./ha
Outline: as §1

Compound | growth controlling degree, TRZAX
COc1c(Cl)cc(F)c(-c2nn(C)c(OC(F)F)c2Cl)c1NC(=O)OCc1cccnc1 [Compound 1-70] | 30%
CCCOC(=O)Nc1c(OC)c(Cl)cc(F)c1-c1nn(C)c(OC(F)F)c1Cl [Compound 1-72] | 20%

tested on: prickly sida (Sida spinosa L.), SIDSP; assay: Test Example 2 post-emergence (foliage treatment) herbicidal activity, SIDSP; type: in vivo; conditions: 63 g a.i./ha
Outline: as §1

Compound | growth controlling degree, SIDSP
COc1c(Cl)cc(F)c(-c2nn(C)c(OC(F)F)c2Cl)c1NC(=O)OCc1cccnc1 [Compound 1-70] | 100%
CCCOC(=O)Nc1c(OC)c(Cl)cc(F)c1-c1nn(C)c(OC(F)F)c1Cl [Compound 1-72] | 100%

tested on: velvetleaf (Abutilon theophrasti): ABUTH; assay: Test Example 1 pre-emergence herbicidal activity, ABUTH; type: in vivo; conditions: Rate 63 g a.i./ha, visually observed 20th to 23rd day after application
Outline: as §3

Compound | Pre-emergence Herbicidal Activity ABUTH (growth controlling degree)
COc1c(Cl)cc(F)c(-c2nn(C)c(OC(F)F)c2Cl)c1NC(=O)OCc1cccnc1 [Compound 1-70] | 100%
CCCOC(=O)Nc1c(OC)c(Cl)cc(F)c1-c1nn(C)c(OC(F)F)c1Cl [Compound 1-72] | 100%

tested on: corn (Zea mays L.): ZEAMX; assay: Test Example 1 pre-emergence herbicidal activity, ZEAMX; type: in vivo; conditions: Rate 63 g a.i./ha, visually observed 20th to 23rd day after application
Outline: as §3

Compound | Pre-emergence Herbicidal Activity ZEAMX (growth controlling degree)
COc1c(Cl)cc(F)c(-c2nn(C)c(OC(F)F)c2Cl)c1NC(=O)OCc1cccnc1 [Compound 1-70] | 0%
CCCOC(=O)Nc1c(OC)c(Cl)cc(F)c1-c1nn(C)c(OC(F)F)c1Cl [Compound 1-72] | 10%

tested on: green foxtail (Setaria viridis L.): SETVI; assay: Test Example 1 pre-emergence herbicidal activity, SETVI; type: in vivo; conditions: Rate 63 g a.i./ha, visually observed 20th to 23rd day after application
Outline: as §3

Compound | Pre-emergence Herbicidal Activity SETVI (growth controlling degree)
COc1c(Cl)cc(F)c(-c2nn(C)c(OC(F)F)c2Cl)c1NC(=O)OCc1cccnc1 [Compound 1-70] | 70%
CCCOC(=O)Nc1c(OC)c(Cl)cc(F)c1-c1nn(C)c(OC(F)F)c1Cl [Compound 1-72] | 100%

tested on: barnyardgrass (Echinochloa crus-galli L.), ECHCG; assay: Test Example 2 post-emergence (foliage treatment) herbicidal activity, ECHCG; type: in vivo; conditions: 63 g a.i./ha
Outline: as §4

Compound | growth controlling degree, ECHCO
COc1c(Cl)cc(F)c(-c2nn(C)c(OC(F)F)c2Cl)c1NC(=O)OCc1cccnc1 [Compound 1-70] | 80%
CCCOC(=O)Nc1c(OC)c(Cl)cc(F)c1-c1nn(C)c(OC(F)F)c1Cl [Compound 1-72] | 80%

tested on: rice (Oryza sativa L.): ORYSA; assay: Test Example 1 pre-emergence herbicidal activity, ORYSA; type: in vivo; conditions: Rate 63 g a.i./ha, visually observed 20th to 23rd day after application
Outline: as §3

Compound | Pre-emergence Herbicidal Activity ORYSA (growth controlling degree)
COc1c(Cl)cc(F)c(-c2nn(C)c(OC(F)F)c2Cl)c1NC(=O)OCc1cccnc1 [Compound 1-70] | 40%
CCCOC(=O)Nc1c(OC)c(Cl)cc(F)c1-c1nn(C)c(OC(F)F)c1Cl [Compound 1-72] | 40%

tested on: japanese bulrush (Scirpus juncoides: SCPJO); assay: Test Example 3 water application herbicidal activity (paddy), SCPJO; type: in vivo; conditions: 63 g a.i./ha, water application under submerged condition at 0.5 leaf stage, visually observed 14th day after application; 0 = untreated control, 100 = complete kill
Source text: as §2

Compound | growth controlling degrees (%) SCPJO
COc1c(Cl)cc(F)c(-c2nn(C)c(OC(F)F)c2Cl)c1NC(=O)OCc1cccnc1 [Compound 1-70] | 80%
CCCOC(=O)Nc1c(OC)c(Cl)cc(F)c1-c1nn(C)c(OC(F)F)c1Cl [Compound 1-72] | 60%

tested on: japanese ribbon wapato (Sagittaria pygmaea: SA GPY); assay: Test Example 3 water application herbicidal activity (paddy), SAGPY; type: in vivo; conditions: 63 g a.i./ha, water application under submerged condition, tubers planted, visually observed 14th day after application; 0 = untreated control, 100 = complete kill
Source text: as §2

Compound | growth controlling degrees (%) SAGPY
COc1c(Cl)cc(F)c(-c2nn(C)c(OC(F)F)c2Cl)c1NC(=O)OCc1cccnc1 [Compound 1-70] | 100%
CCCOC(=O)Nc1c(OC)c(Cl)cc(F)c1-c1nn(C)c(OC(F)F)c1Cl [Compound 1-72] | 100%

tested on: wheat (Triticum aestivum L.): TRZAX; assay: Test Example 1 pre-emergence herbicidal activity, TRZAX; type: in vivo; conditions: Rate 63 g a.i./ha, visually observed 20th to 23rd day after application
Outline: as §3

Compound | Pre-emergence Herbicidal Activity TRZAX (growth controlling degree)
COc1c(Cl)cc(F)c(-c2nn(C)c(OC(F)F)c2Cl)c1NC(=O)OCc1cccnc1 [Compound 1-70] | 0%
CCCOC(=O)Nc1c(OC)c(Cl)cc(F)c1-c1nn(C)c(OC(F)F)c1Cl [Compound 1-72] | 40%

tested on: velvetleaf (Abutilon theophrasti), ABUTH; assay: Test Example 2 post-emergence (foliage treatment) herbicidal activity, ABUTH; type: in vivo; conditions: 63 g a.i./ha
Outline: as §1

Compound | growth controlling degree, ABUTH
COc1c(Cl)cc(F)c(-c2nn(C)c(OC(F)F)c2Cl)c1NC(=O)OCc1cccnc1 [Compound 1-70] | 100%
CCCOC(=O)Nc1c(OC)c(Cl)cc(F)c1-c1nn(C)c(OC(F)F)c1Cl [Compound 1-72] | 100%

tested on: prickly sida (Sida spinosa L.): SEDSP; assay: Test Example 1 pre-emergence herbicidal activity, SIDSP; type: in vivo; conditions: Rate 63 g a.i./ha, visually observed 20th to 23rd day after application
Outline: as §3

Compound | Pre-emergence Herbicidal Activity SIDSP (growth controlling degree)
COc1c(Cl)cc(F)c(-c2nn(C)c(OC(F)F)c2Cl)c1NC(=O)OCc1cccnc1 [Compound 1-70] | 100%
CCCOC(=O)Nc1c(OC)c(Cl)cc(F)c1-c1nn(C)c(OC(F)F)c1Cl [Compound 1-72] | 100%

tested on: rice (Oryza sativa L.), ORYSA; assay: Test Example 2 post-emergence (foliage treatment) herbicidal activity, ORYSA; type: in vivo; conditions: 63 g a.i./ha
Outline: as §4

Compound | growth controlling degree, ORYSA
COc1c(Cl)cc(F)c(-c2nn(C)c(OC(F)F)c2Cl)c1NC(=O)OCc1cccnc1 [Compound 1-70] | 95%
CCCOC(=O)Nc1c(OC)c(Cl)cc(F)c1-c1nn(C)c(OC(F)F)c1Cl [Compound 1-72] | 60%

tested on: redroot pigweed (Amaranthus retroflexus L.), AMARE; assay: Test Example 2 post-emergence (foliage treatment) herbicidal activity, AMARE; type: in vivo; conditions: 63 g a.i./ha
Outline: as §4

Compound | growth controlling degree, AMARE
COc1c(Cl)cc(F)c(-c2nn(C)c(OC(F)F)c2Cl)c1NC(=O)OCc1cccnc1 [Compound 1-70] | 100%
CCCOC(=O)Nc1c(OC)c(Cl)cc(F)c1-c1nn(C)c(OC(F)F)c1Cl [Compound 1-72] | 100%

tested on: crabgrass (Digitaria sanguinalis L.): DIGSA; assay: Test Example 1 pre-emergence herbicidal activity, DIGSA; type: in vivo; conditions: Rate 63 g a.i./ha, visually observed 20th to 23rd day after application
Outline: as §3

Compound | Pre-emergence Herbicidal Activity DIGSP (growth controlling degree)
COc1c(Cl)cc(F)c(-c2nn(C)c(OC(F)F)c2Cl)c1NC(=O)OCc1cccnc1 [Compound 1-70] | 80%
CCCOC(=O)Nc1c(OC)c(Cl)cc(F)c1-c1nn(C)c(OC(F)F)c1Cl [Compound 1-72] | 100%

tested on: redroot pigweed (Amaranthus retroflexus L.): AMARE; assay: Test Example 1 pre-emergence herbicidal activity, AMARE; type: in vivo; conditions: Rate 63 g a.i./ha, visually observed 20th to 23rd day after application
Outline: as §3

Compound | Pre-emergence Herbicidal Activity AMARE (growth controlling degree)
COc1c(Cl)cc(F)c(-c2nn(C)c(OC(F)F)c2Cl)c1NC(=O)OCc1cccnc1 [Compound 1-70] | 100%
CCCOC(=O)Nc1c(OC)c(Cl)cc(F)c1-c1nn(C)c(OC(F)F)c1Cl [Compound 1-72] | 100%
